# From US4512994A, “Long-acting theophylline in medicinal form” (priority 1982, dated 1985)
# “And” between values parts separate entries of the source, which are not always exact repeats. Equal values may be shown once. Read-outs that look alike come from different tables or passages of the source.
# Legend:
# [1] = oral toxicity (LD50) in mice; details: mouse, in vivo, read-out: LD50 orally in mice
# [2] = clinical theophylline blood level on 4th day, theophylline alone or with idrocilamide (Tables 3 and 4); details: inferred from clinical blood levels
# Description: A series of comparative clinical tests were conducted. Five male adults asthma patients took a simultaneous dose of 200 mg theophylline and 100 mg idocrilamide twice a day orally, at 0800 and 2000 hours. On the 4th day, after establishment of a state of equilibrium, the theophylline blood level in the patients under treatment was determined at various times. The determinations were made by highpressure liquid chromatography (Waters apparatus, Lichrosorb RP 18 adsorbent of Merck, methanol, formamide, monopotassium phosphate solvent. Detection by UV spectrophotometry).
# The time in hours (t) after the morning dose is plotted on the x-axis, the time 0 corresponding to the dose of medicine on the 4th day. The theophylline blood concentrations in mg/l (th mg/l) are plotted on the y-axis.
# [3] = in vivo; details: rat, po, 15 mg/kg
# Description: Groups of the so-treated animals were killed by carotid section 15', 30', 1 h, 2 h, 3 h, 4 h, 6 h, and 8 h after administration of the theophylline. The blood was collected in herparinized, centrifuged tubes, and the plasma was decanted. The theophylline blood level was determined in plasma samples after extraction by liquid chromatography.
# [4] = tested on: pulmonary vital capacity; details: digestive disorders, nervous troubles, cardiac troubles, neurological symptoms; cited from earlier work
# [5] = tested on: phosphodiesterase; details: cited from earlier work
# [6] = tested on: bronchial smooth muscles; details: cited from earlier work
# [7] = tested on: mastocytes; details: hypersensitivity reactions; cited from earlier work
# [8] = tested on: cyclic AMP; details: cited from earlier work
# [9] = cited from earlier work
# [10] = cited from earlier work; remark: listed apart in the source
smiles,measurement,setting,value
"O=C(C=Cc1ccc(F)cc1)NCCO [Compound V, N-(2-hydroxyethyl)-4-fluorocinnamamide]",LD50,[1],> 3200 mg/kg
"O=C(C=Cc1ccccc1)NCCO [Compound I, N-(2-hydroxyethyl)cinnamamide]",LD50,[1],3000 mg/kg
same,action mechanism on theophylline metabolism,[2],interference of idrocilamide on the metabolism of theophylline
"CC(CO)NC(=O)C=Cc1ccccc1 (stereo not shown) [Compound IV, N-[2-(1-hydroxypropyl)]cinnamamide]",LD50,[1],3200 mg/kg
"CC1(C)OCCN1C(=O)C=Cc1ccc(F)cc1 [Compound VIII, 2,2-dimethyl-3-(4-fluorocinnamoyl) oxazolidine]",LD50,[1],2000 mg/kg
"CC1(C)OCCN1C(=O)C=Cc1ccc(Cl)cc1 [Compound VII, 3-(4-chlorocinnamoyl)-2,2-dimethylloxazolidine]",LD50,[1],> 3200 mg/kg
"Cn1c(=O)c2[nH]cnc2n(C)c1=O [theophylline, 1,3-dimethylxanthine]",AUC at 8 h,[3],95.1 µg·h/mL
same,AUC(0-inf),[3],117 µg·h/mL
same,Cmax,[3],20300 ng/mL
same,concentration at 0.25 h,[3],17500 ng/mL
same,concentration at 0.5 h,[3],20300 ng/mL
same,concentration at 1 h,[3],18900 ng/mL
same,concentration at 2 h,[3],16700 ng/mL
same,concentration at 3 h,[3],13900 ng/mL
same,concentration at 4 h,[3],12000 ng/mL
same,concentration at 6 h,[3],8040 ng/mL
same,concentration at 8 h,[3],4320 ng/mL
same,half-life,[3],3.47 h
same,concentration above which intolerance signs can appear,[4],> 20000 ng/mL
same,inhibition of phosphodiesterase,[5],competitive inhibition
same,effect of intrapulmonary administration by aerosol,[6]; aerosol,ineffective
same,bronchodilating action,[6],active toward all bronchoconstrictive agents
same,inhibiting action on mastocytes,[7],partially inhibiting their degranulation
same,tissue increase of cyclic AMP,[8],tissue increase of cyclic AMP
same,metabolism,[9]; in vivo,metabolized at the hepatic level to give inactive metabolites eliminated by the kidneys
same,half-life,[9]; normal adult,~6 h and 4 h
same,oral absorption,[9],very good
same,oral absorption,[9]; listed as Theophylline,absorbed very well orally
same,rectal absorption,[9]; rectal,very irregular
same,solubility in water,[10],slightly soluble in water
"CN(CCO)C(=O)C=Cc1ccccc1 [Compound III, N-methyl, N-(2-hydroxyethyl)cinnamamide]",LD50,[1],3000 mg/kg
"CC1(C)OCCN1C(=O)C=Cc1ccccc1 [Compound IX, 3-cinnamoyl-2,2-dimethyloxazolidine]",LD50,[1],> 3200 mg/kg
"CC(=O)c1ccc(C=CC(=O)NCCO)cc1 [Compound VI, N-(2-hydroxyethyl)-4-acetylcinnamamide]",LD50,[1],3200 mg/kg
"O=C(C=Cc1ccc(Cl)cc1)NCCO [Compound II, N-(2-hydroxyethyl)-4-chlorocinnamamide]",LD50,[1],1600 mg/kg
